According to patent publication US20210255193A1, “LYSINE REACTIVE PROBES AND USES THEREOF” (The Scripps Research Institute, priority 2017, published 2021):

Tests used:
[1] = biological target: T1, PNPO (Homo sapiens, UniProt Q9NVS9, K100R); assay: PNPO functional assay; type: biochemical; settings: K100R mutant
T1 construct: Flag; expressed in transfected cells; host or cells: HEK 293T, transient transfection, soluble lysate
Method: (§1) PNPO functional assay. 80 μl of soluble proteome (total protein concentration: 1 mg ml^−1) from HEK 293T cells expressing PNPO (WT or K100R mutant) or mock transfected cells (empty vector; negative control) were added into a clear bottom 384 well plate. For compound treatments, 1 μl of the inhibitor (80× solution in DMSO) or 1 μl of DMSO (positive control) were added and the reactions were incubated for 1 h at room temperature. 10 μl of 0.1 M Tris in PBS were added and the reaction was started by addition of 10 μl 5 mM pyridoxine phosphate (PNP) in water (PNP was prepared as described in Argoudelis, C. J., “Preparation of crystalline pyridoxine 5′-phosphate and some of its properties,” J. Agr. Food Chem. 34, 995-998 (1986)). The absorbance of the Schiff Base between pyridoxal phosphate and Tris was measured at 388 nm every minute for 30 min.
(§2) Calculation of relative activity or percent inhibition. For PNPO, PFKP, NUDT2 and G6PD, the slope of the linear regression of the linear portion of the absorbance or fluorescence over time was used as measure their activity. Apparent activity was calculated relative to the WT. Percent inhibition was calculated relative to the positive and negative control and used to calculate IC50 values by nonlinear regression analysis from a dose-response curve generated using GraphPad Prism 7.

[2] = biological target: T2, PNPO (Homo sapiens, UniProt Q9NVS9); assay: PNPO functional assay; type: biochemical; settings: substrate assay, WT; read-out: IC50, blockade of PNPO catalytic activity
T2 construct: Flag; expressed in transfected cells; host or cells: HEK 293T, transient transfection, soluble lysate
T2 sequence (Q9NVS9 1-261): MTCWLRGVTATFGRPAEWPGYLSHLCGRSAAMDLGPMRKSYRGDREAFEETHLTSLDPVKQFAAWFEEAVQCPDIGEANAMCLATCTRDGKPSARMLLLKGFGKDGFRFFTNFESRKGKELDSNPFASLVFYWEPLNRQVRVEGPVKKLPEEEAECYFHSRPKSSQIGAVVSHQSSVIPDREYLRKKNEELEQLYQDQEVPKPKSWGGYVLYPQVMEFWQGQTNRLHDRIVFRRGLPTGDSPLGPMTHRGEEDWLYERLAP
Method: as §1, §2

[3] = test system: lysine residues in human cell proteomes (MDA-MB-231, Ramos, Jurkat); assay: isoTOP-ABPP lysine reactivity profiling (0.1 vs 1 mM probe 1); type: binding
Method: (§3) STP-alkyne labeling and click chemistry. For concentration-dependent reactivity measurements by isoTOP-ABPP, 0.5 ml proteome aliquots were treated at ambient temperature with 1 mM STP-alkyne 1 (5 μl of 100 mM stock in DMSO) and 0.1 mM STP alkyne 1 (5 μl of 10 mM stock in DMSO), respectively. For competitive isoTOP-ABPP, after in vitro fragment treatment (detailed above), the samples were labeled for 1 h at ambient temperature with 0.1 mM STP-alkyne 1 (5 μl of 10 mM stock in DMSO). Samples were conjugated by copper-mediated azide-alkyne cycloaddition (CuAAC) to either the light (1 mM STP-alkyne or fragment treated) or heavy (0.1 mM STP-alkyne or DMSO treated) TEV tags (10 μl of 5 mM stocks in DMSO, final concentration=100 μM) using tris(2-carboxyethyl)phosphine hydrochloride
(§4) R value calculation and processing. The ratios of light and heavy MS1 peaks for each unique peptide were quantified with a CIMAGE software using default parameters (3 MS1 acquisitions per peak and signal to noise threshold set to 2.5). For reactivity measurements by isoTOP-ABPP, the R value was calculated from the ratio of MS1 peak areas, comparing the 1 mM STP alkyne sample (light TEV tag) with the 0.1 mM STP alkyne sample (heavy TEV tag). For competitive isoTOP-ABPP, the R value was calculated from the ratio of MS1 peak areas, comparing the DMSO treated sample (heavy TEV tag) with the compound treated sample (light TEV tag). […] Ratios for unique peptide entries are calculated for each experiment; overlapping peptides with the same modified lysine (for example, different charge states, MudPIT chromatographic steps or tryptic termini) are grouped together and the median ratio is reported as the final ratio (R). The peptide ratios reported by CIMAGE were further filtered to ensure the removal or correction of low-quality ratios in each individual data set. […]
(§5) Cross-data processing for reactivity profiling. For reactivity profiling, the median of biological replicates of the same condition and cell-line was calculated. For peptides containing several possible modified lysines, the lysine with the highest number of quantification events was used for analysis and the remaining, redundant peptides were reported as alternative modification sites. Peptides were required to be detected in at least one 1 mM vs 0.1 mM and one 0.1 mM vs 0.1 mM data set with the latter R value being smaller than 2.5. […] If the lysine was not detected in any soluble fraction, the R value from the membrane fraction was taken. Additionally, all membrane-only lysines with reactivity values were further required to have been detected in at least one 0.1 mM vs 0.1 mM membrane profiling experiment. […]
(§6) Here, the intrinsic reactivity of lysine residues was assessed in human cell proteomes. In brief, proteomes from three human cancer cell lines were treated (MDA-MB-231, Ramos, and Jurkat cells) with low vs high concentrations of probe 1 (0.1 vs 1 mM, n=4 per group) for 1 h and then analyzed the samples by isoTOP-ABPP, wherein high, medium, and low reactivity lysines were distinguished by their respective isotopic ratio values (R10:1<2, 2<R10:1<5, R10:1>5, respectively). […]

[4] = biological target: T3, lysine residues in human cell proteomes (MDA-MB-231, Ramos, Jurkat) (Homo sapiens, UniProt Q9NVS9); assay: as above; type: binding; settings: PNPO K100; 1 mM vs 0.1 mM probe 1
T3 construct: endogenous in cells; host or cells: MDA-MB-231, Ramos, Jurkat lysates
Method: as §3, §4, §5, §6

T1 sequence (Q9NVS9 whole entry K100R): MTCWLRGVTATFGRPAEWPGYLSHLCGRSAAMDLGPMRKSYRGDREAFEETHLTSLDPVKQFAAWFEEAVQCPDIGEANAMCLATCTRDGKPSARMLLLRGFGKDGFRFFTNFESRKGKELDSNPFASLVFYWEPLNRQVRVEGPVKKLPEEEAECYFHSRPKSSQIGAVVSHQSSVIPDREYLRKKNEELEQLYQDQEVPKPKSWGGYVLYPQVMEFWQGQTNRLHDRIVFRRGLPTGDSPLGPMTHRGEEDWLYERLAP

| inhibitory effect on K100R mutant of PNPO [1] | IC50 [2] [µM] | R10:1 lysine reactivity ratio [4] | Structure (SMILES) | selectivity for lysine modification over other amino acids ([3]; 1 mM probe) | hyper-reactive lysines (R10:1 <2), total residues ([3]; 0.1 vs 1 mM probe 1, 1 h) | quantified lysines with R10:1 values = 10 (low intrinsic reactivity) ([3]; 0.1 vs 1 mM probe 1, 1 h) [%] | quantified lysines with hyper-reactivity with probe 1 (R10:1 values <2) ([3]; 0.1 vs 1 mM probe 1, 1 h) [%] |
| --- | --- | --- | --- | --- | --- | --- | --- |
| not observed | ~5 |  | O=C(CCc1cn(-c2ccccc2)nc1-c1ccccc1)Oc1c(F)c(F)c(F)c(F)c1F [fragment 19, Pentafluorophenyl 3-(1,3-diphenyl-1H-pyrazol-4-yl)propanoate] |  |  |  |  |
|  |  | 0.7 | C#CCCC(=O)Oc1c(F)c(F)c(S(=O)(=O)[O-])c(F)c1F.[Na+] [probe 1, reference compound] | excellent selectivity for lysine modification over other amino acids | 310 | > 50 | < 10 |
